Data set [1] deals with C. difficile NAP1/027 CD26A54_R. Briefly: Metronidazole E-test on BAKHS, C. difficile CD26A54_R. The class given is cell-based, Clostridium difficile. To be noted: BAKHS agar; for MIC: Clostridioides difficile. The procedure: (§1) Mid-log phase (OD600 =0.5- 0.6) culture was diluted to a 0.5 McFarland standard (OD600~ 0.1) in prereduced broth. The diluted culture was inoculated onto duplicate BAKHS agar plate using a cotton tip applicator. The inoculum was allowed to dry before the Metronidazole E-test strip (Metronidazole MZH 256-S30, bioMérieux Australia) was placed in duplicate on the surface of the agar. The agar plate was inverted and incubated for up to 96 hr. The MIC was read as the point at which the elliptical zone of inhibition intercepted the E-test strip at 24, 48 and 96 hr.

Data set [2] has as its system C. difficile NAP1/027 CD26A54_S. Briefly: Metronidazole E-test on BAKHS, C. difficile CD26A54_S. In kind it is cell-based, Clostridium difficile. To be noted: Clostridioides difficile, BAKHS agar. The procedure:
as §1

For data set [3] the following is noted: in vivo; cited from earlier work.
The subject of data set [4] is C. difficile NAP1/027 ATCC BAA-1803. Briefly: Metronidazole E-test on BAKHS, C. difficile ATCC BAA-1803. In kind it is cell-based, Clostridium difficile. Conditions: Clostridioides difficile, ATCCBAA1803, BAKHS agar. The method, then:
as §1

Data set [5] has as its system C. difficile NAP1/027 CD26A54_R. Also on record: method as in PMID 24400070. Conditions: cited from earlier work.
The subject of data set [6] is H. pylori clinical isolate 98/285. Briefly: Metronidazole E-test, H. pylori 98/285. In kind it is cell-based. To be noted: Helicobacter pylori. The method, then: (§2) Helicobacter pylori strains, with a range of resistance levels to metronidazole (256 µg/ml, 64 µg/ml, 24 µg/ml, 2 µg/ml, and 0.04 µg/ml), were selected and obtained from Helicobacter Research Laboratory, University of Western Australia. The resistance strength to metronidazole was recorded according to eTest (bioMérieux). H. pylori strain 26695 was used as the control. H. pylori was maintained on the non-selective Columbia blood agar plates (CBA) (Columbia agar base Oxoid) with 5% horse blood and incubated at 37 °C and 10% CO2 for 48 hrs. […] Each of the H. pylori strains were harvested, OD600 calibrated to 0.3, and spotted in triplicate on CBA pre-mixed with the compound. The lowest concentration of antibiotic showing no growth was read as the MIC. The experiment was performed in duplicate.

Data set [7] has as its system C. difficile NAP1/027 CD26A54_R. Further details: method as in PMID 24400070. To be noted: cited from earlier work. This is another data set of the same source.
Data set [8] can be described thus: Cytotoxicity, resazurin, HepG2. To be noted: human. In kind it is cell-based. The method, then:
(§3) Compounds were tested for cytotoxicity against mammalian HepG2 and HEK293 cell lines, as detailed in the supplementary information.
(§4) HEK293 and HepG2 cells were seeded as 3000 and 5000 cells per well in 384-well plates, respectively. Cells were cultured in DMEM with 1% FBS for 24 hours at 37 °C, 5% CO2. Then a dilution series of compounds was added into each well, with the highest concentration of 100 µM. […] After 24 hours incubation with the compounds, 5 µM resazurin were added into each well and incubated at 37 °C for 2 hours. As a negative control, 1% Triton X-100 was added into the culture media to lyse all the cells. The fluorescence intensity was read using Polarstar Omega with excitation/emission 560/590. The data was analysed by GraphPad Prism software. Results are presented as the average percentage of control ± SD using the following equation: Percentage of Growth = (FITEST – FINegative/FIUNTREATED –FINegative)*100.

For data set [9], the system named is H. pylori clinical isolate 13/61. Briefly: Metronidazole E-test, H. pylori 13/61. The class given is cell-based. Conditions: Helicobacter pylori. The procedure:
as §2

Data set [10] in a line: Cytotoxicity, resazurin, HEK293. In kind it is cell-based. To be noted: human. The method, then:
as §3, §4
Background: Alamar Blue is a resazurin reagent that responds to reducing activity.

Data set [11] concerns H. pylori clinical isolate 13/25. Briefly: Metronidazole E-test, H. pylori 13/25. In kind it is cell-based. To be noted: Helicobacter pylori. The method, then:
as §2

Data set [12] concerns 8 additional drug resistant S. aureus strains, vancomycin resistant E. faecalis, vancomycin resistant E. faecium and multidrug resistant S. pneumoniae. Briefly: MIC broth microdilution, drug resistant Gram-positive panel. In kind it is cell-based. Conditions: all strains of the panel. The method, then: All compounds were tested for activity against a set of anaerobic C. difficile bacteria (630 ATCC BAA-1382, NAP1/027 M7404, NAP1/027 ATCC BAA-1803, VPI10463 ATCC 43255, CD26A54_S and CD26A54_R) and representative ESKAPE pathogens S. aureus (MRSA ATCC 43300), E. coli (ATCC 25922), K. pneumoniae (ATCC 700603), A. baumannii (ATCC 19606) and P. aeruginosa (ATCC 27853) using a standard broth microdilution assay. Selected compounds were tested for activity against H. pylori strains (26695, and clinical isolates MtzS 13/25, MtzR 98/285 and MtzR 13/61) using agar plate dilution, and for antimicrobial activity against […] Gram-positive bacterial strains: Enterococcus faecalis (VanA clinical isolate), Enterococcus faecium (MDR VanA ATCC 51559), Streptococcus pneumoniae (MDR ATCC 700677), S. aureus (MRSA ATCC 43300, MRSA clinical isolate, MRSA/DRSA clinical isolate, GISA NARSA NRS 1, GISA NARSA NRS 17, VRSA NARSA VRS1, VRSA NARSA VRS4 and VRSA NARSA VRS10) using broth microdilution. C. difficile strains were grown at 37 °C in a COY anaerobic chamber (5% H2, 10% CO2, 85% N2). H. pylori strains were grown at 37 °C under a microaerobic atmosphere (5% O2, 10% CO2). All facultative anaerobic bacteria were grown at 37 °C with normal atmospheric oxygen levels. All experiments were performed in duplicate with metronidazole, vancomycin, linezolid or colistin as positive controls for relevant strains (see Table 1). Positive growth control of bacteria and DMSO as well as a negative control of only media were included for every plate. Full assay details are provided in the supplementary information.
MICs were determined by a two-fold serial broth micro dilution according to the recommendation of CLSI standards with an inoculum of 5 × 10^5 CFU/mL^4 The compounds along with standard antibiotics were serially diluted twofold across the wells of 96-well non-binding surface plates (NBS, Corning). Standards ranged from 64 to 0.03 μg/mL, and the compounds from 128 to 0.06 μg/mL with final volumes of 50 μL per well. Gram-positive and Gram-negative bacteria were cultured in Mueller Hinton broth (MHB) (Bacto laboratories, Cat. no. 211443) at 37 °C overnight. A sample of each culture was then diluted 40-fold in fresh MHB broth and incubated at 37 °C for 2-3 h. The resultant mid-log phase cultures were diluted to the final concentration of 5 × 10^5 CFU/mL, then 50 μL was added to each well of the compound containing 96-well plates. All the plates were covered and incubated at 37 °C for 24 h.
(Dilution methods test growth across graded concentrations, often in twofold steps.)

Values after ≈ are worked out from the molar mass of the structure shown.

`Cc1ncc([N+](=O)[O-])n1CCO` [Compound 1, metronidazole]: in data set [1] (48 hrs), the “Metronidazole E-test MIC CD26A54_R” value is listed as 48 µg/mL. For the same molecule, the MIC in [1] (24 hrs) was 32 µg/mL (≈ 187 µM); in data set [1] (48 hrs), 48 µg/mL (≈ 280 µM); in data set [1] (96 hrs) it was 48 µg/mL (≈ 280 µM); in [2] (24 hrs) it was 6 µg/mL (≈ 35.1 µM); in [2] (48 hrs), 8 µg/mL (≈ 46.7 µM); in [2] (96 hrs), 8 µg/mL (≈ 46.7 µM). The MIC is 2 µg/mL (≈ 11.7 µM) in data set [4] (24 hrs); 2 µg/mL (≈ 11.7 µM) in [4] (48 hrs); 2 µg/mL (≈ 11.7 µM) in data set [4] (96 hrs); 24 µg/mL (≈ 140 µM) in data set [6]; 256 µg/mL (≈ 1500 µM) in [9]; 2 µg/mL (≈ 11.7 µM) in data set [11]. Also, in data set [3], the oral bioavailable is 100%. In data set [5], the “MIC to metronidazole in broth, MtzR C. difficile, reported by Chong et al.” value is 8 µg/mL (≈ 46.7 µM). Also, the “Metronidazole MIC by E-test, MtzR C. difficile, reported by Chong et al.” value in data set [7] was greater than 32 µg/mL. In addition, the CC50 at 24 h in data set [8] and in [10] was greater than 100 µM in each case.
Turning to `Cc1ncc([N+](=O)[O-])n1CCN=[N+]=[N-]` [Compound 3, 1-(2-azidoethyl)-2-methyl-5-nitro-1H-imidazole], the CC50 at 24 h in [8] (no cytotoxicity up to 100 μM, 24 hours incubation, read-out: CC50 HepG2) was greater than 100 µM; in [10] (no cytotoxicity up to 100 μM, 24 hours incubation, read-out: CC50 HEK293) it was greater than 100 µM. In data set [12], the “MIC against panel of drug resistant Gram-positive strains” value is greater than 64 µg/mL.

The MIC is the smallest concentration in the dilution series that meets the test's criterion for growth inhibition. The low end stands for inhibition by little substance, the high end for a need for much substance. In general, CC50 refers to the concentration at which the toxic effect on the cells reaches its halfway point.

(Values after publication PMC4550478, “Metronidazole-triazole conjugates: Activity against Clostridium difficile and parasites” (European Journal of Medicinal Chemistry, 2015).)
